# Peptide text beside a SMILES is read from it.
# B1: hTRT p865 synthetic peptide (residues 865-873 of human telomerase reverse transcriptase) (peptide)
# peptide: RLVDDFLLV
# notes: Synthetic 9mer, bought from the Biopolymer Synthesis Center (CalTech)
# B2: hTRT p540 synthetic peptide (residues 540-548 of human telomerase reverse transcriptase) (peptide)
# peptide: ILAKFLHWL
# notes: as for B1
# Experiments:
# HLA-A2+ CD34+ cells = details: reference 24; cited from earlier work
# HLA-A2.1 molecule = target: T1, HLA-A2.1 molecule (Homo sapiens, UniProt P04439, D140Y/D185E/D98H/E176V/E277Q/G131W/G231S/I119V/I121R/I166T/I218V/L300P/L318F/N151K/N90K/P208A/P217A/Q86G/Q94H/R138H/R169H/T345S); assay: HLA-A2.1 binding/stabilization assay on TAP- T2 cells; details: time required for a 50% reduction in mean fluorescence intensity
# T1 construct: endogenous in cells; host or cells: human T2 cells (TAP-, HLA-A2.1+)
# Description: The relative avidity was measured as previously described (25). Briefly, T2 cells were incubated overnight at 37° C. in RPMI supplemented with human β2-microglobulin (100 ng/ml) (Sigma, St. Louis, Mo.) in the absence (negative control) or presence of the test peptide or the reference peptide 4761[…]484 (SEQ ID NO:7) of HIV-1 reverse transcriptase at various final peptide concentrations (0.1-100 μM). Cells were incubated with Brefeldin A (0.5 μg/ml) for one hour and subsequently stained with a saturating concentration of monoclonal antibody BB7.2 for 30 minutes at +4° C. followed by washing and a second incubation with a goat antibody to mouse Ig (Fab′)2 conjugated to FITC (Caltag, South San Francisco). Cells were then washed, fixed with 1% paraformaldehyde and analyzed in a FACs Calibur cytofluorimeter (Becton & Dickinson, San Jose, Calif.). The mean fluorescence intensity of each concentration minus that of cells without peptide was used as an estimate of peptide binding. […] Dissociation of the test peptide from the HLA-A2.1 molecule reflects the half-life of fluorescence intensity of the peptide/MHC complex over time. The half-life of the complex (DC50) refers to the time (hours) required for a 50% reduction of the TO mean fluorescence intensity (25). Synthetic peptides 571[…]579 (SEQ ID NO:5) of carcinoembryonic antigen (CEA) and 476[…]486 (SEQ ID NO:6) of melanoma antigen gp100 were used as internal controls to account for inter-tests variability and for consistency with previously reported RA and DC50 measures (25).
# Since the immunogenicity of MHC Class I-restricted peptides reflects to some degree their binding and stabilizing capacity for MHC Class I molecules (31-33) Applicant sought direct proof of the strength of interaction between the two hTRT peptides and the HLA-A2.1 molecule in a conventional binding/stabilization assay that uses the antigen-transporting deficient (TAP-) HLA-A2.1+ human T2 cells. […] The stability of each peptide bound to HLA-A2.1 was measured as the half-life of the complex
# [1] = system: hTRT+/HLA-A2+ melanoma cell line 624; assay: Normal donor CTL against p572(Y), lysis of melanoma 624; format: cell-based, human; details: normal blood donor PBMC immunized in vitro
# From the text: FIG. 6. […] The results are expressed as percent lysis and show by comparison lysis of 624 melanoma cells, and HLA-A2+T2 target cells pulsed with the p572(Y) and p572 wild type peptides, respectively. Nonspecific lysis of T2 cells is shown as a control.
# CTL generated against p572 were also able to lyze the hTRT+/HLA-A2+ melanoma cell line 624. The antigen-recognition activity of T cells is intimately linked with recognition of MHC (HLA in humans) molecules.
# [2] = system: HLA-A2+T2 target cells pulsed with peptide; assay: In vitro immunization of normal HLA-A2+ donor PBMC with Y-modified hTRT peptides; format: cell-based, human
# From the text: PBMC from three normal HLA-A2+ individuals were immunized with the Y-modified peptides. The results are summarized as follows (Table VII).
# [3] = target: T2, HLA-A2.1 molecule on TAP-deficient human T2 cells (human); assay: T2 cell HLA-A2.1 binding/stabilization assay, BB7.2 flow cytometry; ratio of peptide concentration giving 20% of maximal binding, against reference peptide [..] (SEQ ID NO:7) of HIV-1 reverse transcriptase; lower is stronger
# T2 construct: MHC class I molecule on the surface of T2 cells; also called MHC Class I
# Description: Briefly, T2 cells were incubated overnight at 37° C. in RPMI supplemented with human β2-microglobulin (100 ng/ml) (Sigma, St. Louis, Mo.) in the absence (negative control) or presence of the test peptide or the reference peptide 476_1[…]$484$ (SEQ ID NO:7) of HIV-1 reverse transcriptase at various final peptide concentrations (0.1-100 µM). Cells were incubated with Brefeldin A (0.5 µg/ml) for one hour and subsequently stained with a saturating concentration of monoclonal antibody BB7.2 for 30 minutes at +4° C. followed by washing and a second incubation with a goat antibody to mouse Ig (Fab')2 conjugated to FITC (Caltag, South San Francisco). Cells were then washed, fixed with 1% paraformaldehyde and analyzed in a FACs Calibur cytofluorimeter (Becton & Dickinson, San Jose, Calif.). The mean fluorescence intensity of each concentration minus that of cells without peptide was used as an estimate of peptide binding. […] Dissociation of the test peptide from the HLA-A2.1 molecule reflects the half-life of fluorescence intensity of the peptide/MHC complex over time. The half-life of the complex (DC50) refers to the time (hours) required for a 50% reduction of the TO mean fluorescence intensity (25). Synthetic peptides $571$[…]$579$ (SEQ ID NO:5) of carcinoembryonic antigen (CEA) and $476$[…]$486$ (SEQ ID NO:6) of melanoma antigen gp100 were used as internal controls to account for intertests variability and for consistency with previously reported RA and DC50 measures (25).
# Since the immunogenicity of MHC Class I-restricted peptides reflects to some degree their binding and stabilizing capacity for MHC Class I molecules (31-33) Applicant sought direct proof of the strength of interaction between the two hTRT peptides and the HLA-A2.1 molecule in a conventional binding/stabilization assay that uses the antigen-transporting deficient (TAP-) HLA-A2.1+ human T2 cells.
molecule,measurement,setting,value
CC[C@H](C)[C@H](N)C(=O)N[C@@H](CC(C)C)C(=O)N[C@@H](C)C(=O)N[C@@H](CCCCN)C(=O)N[C@@H](Cc1ccccc1)C(=O)N[C@@H](CC(C)C)C(=O)N[C@@H](Cc1c[nH]cn1)C(=O)N[C@@H](Cc1c[nH]c2ccccc12)C(=O)N[C@@H](CC(C)C)C(=O)O [p540] (H-ILAKFLHWL-OH),lysis of HLA-A2+ CD34+ cells by CTL raised in normal individuals,HLA-A2+ CD34+ cells,did not lyse
same,DC50 (half-life of peptide/HLA-A2.1 complex),HLA-A2.1 molecule,4 to 6 h
CC(C)C[C@H](NC(=O)[C@H](Cc1ccccc1)NC(=O)[C@H](CC(=O)O)NC(=O)[C@H](CC(=O)O)NC(=O)[C@@H](NC(=O)[C@H](CC(C)C)NC(=O)[C@@H](N)CCCNC(=N)N)C(C)C)C(=O)N[C@@H](CC(C)C)C(=O)N[C@H](C(=O)O)C(C)C [p865] (H-RLVDDFLLV-OH),DC50 (half-life of peptide/HLA-A2.1 complex),HLA-A2.1 molecule,2 to 4 h
RLFFYRKSV [p572 wild type],lysis of melanoma cell line 624 in words,[1],able to lyze
"VLYRYGSFSV (listed as Homo sapiens) [gp100 p476, peptide of human melanoma antigen gp100, internal control]",DC50 (half-life of peptide/HLA-A2.1 complex),HLA-A2.1 molecule,4 to 6 h
"YELLRSFFYV (listed as Homo sapiens) [p555(Y), Y-modified hTRT peptide p555]",CTL against target cells pulsed with p555(Y),[2]; donor 218,4%
same,CTL against target cells pulsed with p555(Y),[2]; donor 219,8%
same,CTL against target cells pulsed with p555(Y),[2]; donor 222,1%
"YLARCALFV (listed as Homo sapiens) [p152(Y), Y-modified hTRT peptide p152]",CTL against target cells pulsed with p152(Y),[2]; donor 218,7%
same,CTL against target cells pulsed with p152(Y),[2]; donor 219,2%
same,CTL against target cells pulsed with p152(Y),[2]; donor 222,1%
"YLFFYRKSV (listed as Homo sapiens) [p572(Y), Y-modified hTRT peptide p572]",CTL against target cells pulsed with p572(Y),[2]; donor 218,48-50%
same,CTL against target cells pulsed with p572 wild type,[2]; donor 218,26-46%
same,CTL against target cells pulsed with p572(Y),[2]; donor 219,4%
same,CTL against target cells pulsed with p572(Y),[2]; donor 222,27%
same,CTL against target cells pulsed with p572 wild type,[2]; donor 222,5%
same,lysis of melanoma cell line 624 in words,[1],kill melanoma cells 624
B1,Relative Avidity (RA),[3],2.5
B2,Relative Avidity (RA),[3],2.9
VLYRYGSFSV (bought from Neosystem) [gp100 p476 synthetic peptide of human melanoma antigen gp100],Relative Avidity (RA),[3],9

# Source: US7388071B2, “Composition and method for inducing and enhancing a telomerase reverse transcriptase-reactive cytotoxic T lymphocyte response” (The Regents of the University of California, priority 2000, dated 2008)
